From patent US8575127B2, “Antithrombotic diadenosine tetraphosphates and related analogs” (GLSynthesis Inc., priority 2008, dated 2013) come the findings set out here.

The test system of this test is ADP-induced human platelet aggregation. The test is described as follows: ADP-induced platelet aggregation in platelet-rich human plasma (optical aggregometry). It counts as cell-based. Particulars: inhibition of 3 μM ADP-induced human platelet aggregation, average of 2 experiments. On the procedure:
Platelet aggregation was initiated by adding ADP (3 μM) in the presence or absence of various concentrations of test compound to platelet-rich human plasma, and the aggregation response was recorded for six minutes in a Chrono-log® aggregometer running the Aggro/Link software (Chrono-log®, Havertown, Pa.).

`CSc1nc(N)c2ncn(C3OC(COP(=O)(O)OP(=O)(O)OP(=O)(O)OP(=O)(O)OCC4OC(n5cnc6c(N)nc(SC)nc65)C(O)C4O)C(O)C3O)c2n1` (stereo not shown) [Compound 2, tetrasodium P^1,P^4-bis-(2-methylthio-5′-adenosine)tetraphosphate] showed an IC50 of 0.089 ± 0.038 µM.
Next, `CNc1ncnc2c1ncn2[C@@H]1O[C@H](COP(O)(=S)OP(=O)(O)C(Cl)P(=O)(O)OP(O)(=S)OC[C@H]2O[C@@H](n3cnc4c(NC)ncnc43)[C@H](O)[C@@H]2O)[C@@H](O)[C@H]1O` (stereo partly shown) [Compound 8, P^1,P^4-bis(N^6-methyl-5′-adenosine)-P^1,P^4-dithio-P^2,P^3-monochloromethylenetetraphosphate]: 3.52 ± 0.83 µM.
The result for `CSc1nc(N)c2ncn(C3OC(COP(O)(=S)OP(=O)(O)OP(=O)(O)OP(O)(=S)OCC4OC(n5cnc6c(N)nc(SC)nc65)C(O)C4O)C(O)C3O)c2n1` (stereo not shown) [Compound 10, P^1,P^4-bis-(2-methylthio-5′-adenosine)-P^1,P^4-dithiotetraphosphate] reads 0.05 ± 0.037 µM; that for `CCCNc1ncnc2c1ncn2C1OC(COP(O)(=S)OP(=O)(O)C(Cl)P(=O)(O)OP(O)(=S)OCC2OC(n3cnc4c(NCCC)ncnc43)C(O)C2O)C(O)C1O` (stereo not shown) [Compound 12, P^1,P^4-bis-(N^6-propyl-5′-adenosine)-P^1,P^4-dithio-P^2,P^3-monochloromethylenetetraphosphate], 5.56 ± 1.7 µM.
Next, `CSc1nc(N)c2ncn(C3OC(COP(O)(=S)OP(=O)(O)C(Cl)P(=O)(O)OP(O)(=S)OCC4OC(n5cnc6c(N)nc(SC)nc65)C(O)C4O)C(O)C3O)c2n1` (stereo not shown) [Compound 17, P^1,P^4-bis-(2-methylthio-5′-adenosine)-P^1,P^4-dithio-P^2, P^3-monochloromethylenetetraphosphate]: 0.013 ± 0.01 µM; `CNc1nc(SC)nc2c1ncn2C1OC(COP(O)(=S)OP(=O)(O)C(Cl)P(=O)(O)OP(O)(=S)OCC2OC(n3cnc4c(NC)nc(SC)nc43)C(O)C2O)C(O)C1O` (stereo not shown) [Compound 22, P^1,P^4-bis(N^6-methyl-2-methylthio-5′-adenosine)-P^1,P^4-dithio-P^2,P^3-monochloromethylenetetraphosphate]: 0.26 µM; `CCCSc1nc(N)c2ncn([C@@H]3O[C@H](COP(O)(=S)OP(=O)(O)C(Cl)P(=O)(O)OP(O)(=S)OC[C@H]4O[C@@H](n5cnc6c(N)nc(SCCC)nc65)[C@H](O)[C@@H]4O)[C@@H](O)[C@H]3O)c2n1` (stereo partly shown) [Compound 32, P^1,P^4-bis(2-propylthio-5′-adenosine)-P^1,P^4-dithio-P^2,P^3-monochloromethylenetetraphosphate]: 0.015 ± 0.01 µM.
`Nc1nc(I)nc2c1ncn2[C@@H]1O[C@H](COP(O)(=S)OP(=O)(O)C(Cl)P(=O)(O)OP(O)(=S)OC[C@H]2O[C@@H](n3cnc4c(N)nc(I)nc43)[C@H](O)[C@@H]2O)[C@@H](O)[C@H]1O` (stereo partly shown) [Compound 40, P^1,P^1-bis-(2-iodo-5′-adenosine)-P^1,P^4-dithio-P^2, P^3-monochloromethylenetetraphosphate] had an IC50 of 0.021 ± 0.006 µM.
Next, `Nc1nc(Cl)nc2c1ncn2C1OC(COP(O)(=S)OP(=O)(O)C(Cl)P(=O)(O)OP(O)(=S)OCC2OC(n3cnc4c(N)nc(Cl)nc43)C(O)C2O)C(O)C1O` (stereo not shown) [Compound 44, P^1,P^4-bis(2-chloro-5′-adenosine)-P^1,P^4-dithio-P^2,P^3-monochloromethylenetetraphosphate]: 0.098 ± 0.004 µM.
Next, “Bis-adenosine tetraphosphate [Ap4A, reference compound]”: 9.8 ± 2.8 µM.
